{"source": "patent US5157051A", "about": "“Composition and use of 3-thiocyano-2-halo-2-propenenitriles as antimicrobial agents” (The Dow Chemical Company, priority 1992, dated 1992)", "key": {"[1]": {"tested_on": "Saccharomyces cerevisiae", "experiment": "MIC, Saccharomyces cerevisiae (Sc), malt yeast agar", "format": "cell-based, Saccharomyces cerevisiae ATCC 4105", "details": "30° C., 48 hours (yeast), read-out: Minimum Inhibitory Concentration, Sc", "description": "(§1) The minimum inhibitory concentration (MIC) for the compounds is determined for 9 bacteria, using nutrient agar, and 7 yeast and fungi, using malt yeast agar. A one percent solution of the test compound is prepared in a mixture of acetone and water. Nutrient agar is prepared at pH 6.8, representing a neutral medium, and at pH 8.2, representing an alkaline medium. The nutrient agars are prepared by adding 23 g of nutrient agar to one-liter of deionized water. In addition, the alkaline medium is prepared by adjusting a 0.04M solution of N-[tris-(hydroxymethyl)methyl]-glycine buffered deionized water with concentrated sodium hydroxide to a pH of […]. Malt yeast agar is prepared by adding 3 g yeast extract and 45 g malt agar per liter of dionized water. The specific agar is dispensed in 30 ml aliquots into 25×200 mm test tubes, capped and autoclaved for 15 minutes at 115° C. The test tubes containing the agar are cooled in a water bath until the temperature of the agar is 48 ° C. […]\n(§2) The inoculation with the yeast and fungi is accomplished as follows. […] The petri plates are incubated at 30° C. and read after 48 hours for yeast and 72 hours for fungi. […]"}, "[2]": {"tested_on": "Pseudomonas aeruginosa (PRD-10)", "experiment": "MIC, Pseudomonas aeruginosa (PRD-10), nutrient agar", "format": "cell-based, Pseudomonas aeruginosa ATCC 15442", "details": "30° C., 48 hours, read-out: Minimum Inhibitory Concentration, PRD", "description": "as §1\n(§3) The inoculated petri plates are incubated at 30° C. for 48 hours and then read to determine if the test compound which is incorporated into the agar prevented growth of the respective bacteria. […]"}, "[3]": {"tested_on": "Pseudomonas aeruginosa", "experiment": "MIC, Pseudomonas aeruginosa (Pa), nutrient agar", "format": "cell-based, Pseudomonas aeruginosa ATCC 10145", "details": "30° C., 48 hours, read-out: Minimum Inhibitory Concentration, Pa", "description": "as §1, §3"}, "[4]": {"tested_on": "Bacillus subtilis", "experiment": "MIC, Bacillus subtilis (Bs), nutrient agar", "format": "cell-based, Bacillus subtilis ATCC 8473", "details": "30° C., 48 hours, read-out: Minimum Inhibitory Concentration, Bs", "description": "as §1, §3"}, "[5]": {"tested_on": "Penicillium chrysogenum", "experiment": "MIC, Penicillium chrysogenum (Pc), malt yeast agar", "format": "cell-based, Penicillium chrysogenum ATCC 9480", "details": "30° C., 72 hours (fungi), read-out: Minimum Inhibitory Concentration, Pc", "description": "as §1, §2"}, "[6]": {"tested_on": "Klebsiella pneumoniae", "experiment": "MIC, Klebsiella pneumoniae (Kp), nutrient agar", "format": "cell-based, Klebsiella pneumoniae ATCC 8308", "details": "30° C., 48 hours, read-out: Minimum Inhibitory Concentration, Kp", "description": "as §1, §3"}, "[7]": {"tested_on": "Salmonella choleraesuis", "experiment": "MIC, Salmonella choleraesuis (Sc), nutrient agar", "format": "cell-based, Salmonella choleraesuis ATCC 10708", "details": "Salmonella enterica, 30° C., 48 hours, read-out: Minimum Inhibitory Concentration, Sc", "description": "as §1, §3"}, "[8]": {"tested_on": "Escherichia coli", "experiment": "MIC, Escherichia coli (Ec), nutrient agar", "format": "cell-based, Escherichia coli ATCC 11229", "details": "30° C., 48 hours, read-out: Minimum Inhibitory Concentration, Ec", "description": "as §1, §3"}, "[9]": {"tested_on": "Staphylococcus aureus", "experiment": "MIC, Staphylococcus aureus (Sa), nutrient agar", "format": "cell-based, Staphylococcus aureus ATCC 6538", "details": "30° C., 48 hours, read-out: Minimum Inhibitory Concentration, Sa", "description": "as §1, §3"}, "[10]": {"tested_on": "Proteus vulgaris", "experiment": "MIC, Proteus vulgaris (Pv), nutrient agar", "format": "cell-based, Proteus vulgaris ATCC 881", "details": "30° C., 48 hours, read-out: Minimum Inhibitory Concentration, Pv", "description": "as §1, §3"}, "[11]": {"tested_on": "Fusarium oxysporum", "experiment": "MIC, Fusarium oxysporum (Fo), malt yeast agar", "format": "cell-based, Fusarium oxysporum ATCC 48112", "details": "30° C., 72 hours (fungi), read-out: Minimum Inhibitory Concentration, Fo", "description": "as §1, §2"}, "[12]": {"tested_on": "Candida albicans", "experiment": "MIC, Candida albicans (Ca), malt yeast agar", "format": "cell-based, Candida albicans ATCC 10231", "details": "30° C., 48 hours (yeast), read-out: Minimum Inhibitory Concentration, Ca", "description": "as §1, §2"}, "[13]": {"tested_on": "Trichoderma viride", "experiment": "MIC, Trichoderma viride (Tv), malt yeast agar", "format": "cell-based, Trichoderma viride ATCC 8678", "details": "30° C., 72 hours (fungi), read-out: Minimum Inhibitory Concentration, Tv", "description": "as §1, §2"}, "[14]": {"tested_on": "Aspergillus niger", "experiment": "MIC, Aspergillus niger (An), malt yeast agar", "format": "cell-based, Aspergillus niger ATCC 16404", "details": "30° C., 72 hours (fungi), read-out: Minimum Inhibitory Concentration, An", "description": "as §1, §2"}, "[15]": {"tested_on": "Aureobasidium pullulan", "experiment": "MIC, Aureobasidium pullulan (Ap), malt yeast agar", "format": "cell-based, Aureobasidium pullulan ATCC 16622", "details": "30° C., read after 48 hours for yeast and 72 hours for fungi, read-out: Minimum Inhibitory Concentration, Ap", "description": "as §1, §2"}, "[16]": {"tested_on": "Enterobacter aerogenes", "experiment": "MIC, Enterobacter aerogenes (Ea), nutrient agar", "format": "cell-based, Enterobacter aerogenes ATCC 13048", "details": "Klebsiella aerogenes, 30° C., 48 hours, read-out: Minimum Inhibitory Concentration, Ea", "description": "as §1, §3"}}, "note": "Read-outs that look alike come from different tables or passages of the source."}
{"smiles": "N#CSC=C(Cl)C#N", "note": "[3-Thiocyano-2-chloro-2-propenenitrile, 3-Thiocyano-2-Chloro-2-Propenenitrile]", "values": [{"measurement": "MIC", "setting": "[1]", "result": 2.5, "unit": "µg/mL"}, {"measurement": "MIC", "setting": "[2]; pH 6.8, nutrient agar", "result": 250, "unit": "µg/mL"}, {"measurement": "MIC", "setting": "[2]; pH 8.2, nutrient agar", "result": "> 500", "unit": "µg/mL"}, {"measurement": "MIC", "setting": "[3]; pH 6.8, nutrient agar", "result": 250, "unit": "µg/mL"}, {"measurement": "MIC", "setting": "[3]; pH 8.2, nutrient agar", "result": 500, "unit": "µg/mL"}, {"measurement": "MIC", "setting": "[4]; pH 6.8, nutrient agar", "result": 25, "unit": "µg/mL"}, {"measurement": "MIC", "setting": "[4]; pH 8.2, nutrient agar", "result": 500, "unit": "µg/mL"}, {"measurement": "MIC", "setting": "[5]", "result": 2.5, "unit": "µg/mL"}, {"measurement": "MIC", "setting": "[6]; pH 6.8, nutrient agar", "result": 100, "unit": "µg/mL"}, {"measurement": "MIC", "setting": "[6]; pH 8.2, nutrient agar", "result": 500, "unit": "µg/mL"}, {"measurement": "MIC", "setting": "[7]; pH 6.8, nutrient agar", "result": 100, "unit": "µg/mL"}, {"measurement": "MIC", "setting": "[7]; pH 8.2, nutrient agar", "result": "> 500", "unit": "µg/mL"}, {"measurement": "MIC", "setting": "[8]; pH 6.8, nutrient agar", "result": 100, "unit": "µg/mL"}, {"measurement": "MIC", "setting": "[8]; pH 8.2, nutrient agar", "result": "> 500", "unit": "µg/mL"}, {"measurement": "MIC", "setting": "[9]; pH 6.8, nutrient agar", "result": 50, "unit": "µg/mL"}, {"measurement": "MIC", "setting": "[9]; pH 8.2, nutrient agar", "result": 500, "unit": "µg/mL"}, {"measurement": "MIC", "setting": "[10]; pH 6.8, nutrient agar", "result": 50, "unit": "µg/mL"}, {"measurement": "MIC", "setting": "[10]; pH 8.2, nutrient agar", "result": "> 500", "unit": "µg/mL"}, {"measurement": "MIC", "setting": "[11]", "result": 2.5, "unit": "µg/mL"}, {"measurement": "MIC", "setting": "[12]", "result": 2.5, "unit": "µg/mL"}, {"measurement": "MIC", "setting": "[13]", "result": 5, "unit": "µg/mL"}, {"measurement": "MIC", "setting": "[14]", "result": 2.5, "unit": "µg/mL"}, {"measurement": "MIC", "setting": "[15]", "result": 2.5, "unit": "µg/mL"}, {"measurement": "MIC", "setting": "[16]; pH 6.8, nutrient agar", "result": 250, "unit": "µg/mL"}, {"measurement": "MIC", "setting": "[16]; pH 8.2, nutrient agar", "result": "> 500", "unit": "µg/mL"}]}
